# Results as given in patent US7683211B2, “Jasmonate derivative compounds pharmaceutical compounds and methods of use thereof” (Ramot at Tel-Aviv University Ltd., priority 2003, dated 2010).
# Where two headings read alike, the source gives them in different places.
# Legend:
# lymphomas in mice = conditions: from U.S. Pat. No. 6,469,061; cited from earlier work
# [1] = system: Molt-4 lymphoblastic leukemia cells; experiment: CellTiter 96 MTS cytotoxicity assay, Molt-4 leukemia cells; assay type: cell-based, human; conditions: for IC50: Homo sapiens, 24 h, Molt-4 at 2.5×10^4/ml
# Procedure: (§1) Measurement of reduction in the number of living cells was determined by, the CellTiter 96 Aqueous Non-Radioactive Cell Proliferation Assay (Promega, Madison Wis.). Upon completion of a given experiment, MTS (a tetrazolium compound) at 333 μg/ml+phenazine methosulfate (at 25 μM) was added to each well of the 96-well plate for 1 hour at 37° C. This allowed for development of a color reaction in which dehydrogenases reduce the MTS in metabolically active cells. Since the cells were not washed before the addition of MTS, there were no potentially loosely adherent or non-adherent cells that could have been problematic. Soluble MTS formazan product was measured at a wavelength of 490 nm using a CERES 900 HDI ELISA reader (Bio-Tek Instruments, Inc, Highland Park, Vt.), Optical density is directly proportional to the number of living cells in culture. Cytotoxicity (%) was calculated in the following way: [(OD of control cells−OD of drug-treated cells)/OD of control cells]×100.
# (§2) Molt-4 lymphoblastic leukemia cells (at 1.5×10^4/well), 3LL lung carcinoma cells (at 4×10^3/well), B16 melanoma cells (at 4×10^3/well), or HCT116 colon carcinoma cells (at 4×10^3/well) were seeded in 96-well plates and methyl jasmonate (MJ) or MJDB at 0.5 mM were added for 1 day. Optical density representing viable cells was determined by the CellTiter 96 Aqueous Non-Radioactive Cell Proliferation Assay (described above). Cytotoxicity was calculated as the % of control untreated cultures, mean±SD. n=3.
# (§3) The optical density that represented viable cells was determined by the CellTiter 96 Aqueous Non-Radioactive Cell Proliferation Assay (Promega, Madison, Wis.), as described above. Cytotoxicity was calculated as % of control untreated cultures, mean±SE. n=3.
# Biological assays were performed with a 1:1 mixture of the aforementioned tetra bromo isomers. More specifically, Molt-4 leukemic cells (at 2.5×10^4/ml) were incubated for one day in 96-well plates in the presence of different concentrations of either MJ or MJTB. The optical density that represented viable cells was determined by the CellTiter 96 Aqueous Non-Radioactive Cell Proliferation Assay (Promega, Madison, Wis.) as described above. Cytotoxicity is calculated as % of control untreated cultures, mean±SE. n=3.
# Molt-4 (leukemia) cells (at 2.5×10^4/ml), and normal peripheral blood lymphocytes (PBL, at 2×10^5/ml) were incubated in 96-well plates for one day in the presence of different concentrations of MJTB. PBL were pre-incubated with 0.8 μg/ml phytohaemagglutinin +5 ng/ml TPA for 48 hours, to induce entrance into the cell cycle. These cells proliferate and therefore are similar in that respect to cancer cells, making the comparison more valid. The optical density that represented viable cells was determined by the CellTiter 96 Aqueous Non-Radioactive Cell Proliferation Assay (Promega, Madison, Wis.), as described above.
# Molt4 leukemic cells (at 1.5×10^4/ml) were incubated for 1 day in the presence of different concentrations of halogenated derivatives of MJ. Specifically, these derivatives were MJS72f5 (one of R6 and R7 is iodo and the other is methoxy), MJS99 (R6 and R7 are each fluoro) and NJ-63 (one of R6 and R7 is bromo and the other is hydroxyl). The optical density that represented viable cells was determined by the CellTiter 96 Aqueous Non-Radioactive Cell Proliferation Assay (Promega, Madison, Wis.), described above. […] Another derivative.
# [2] = system: B16MDR (melanoma exhibiting multidrug resistance) cells; experiment: CellTiter 96 MTS cytotoxicity assay, B16MDR melanoma cells; assay type: cell-based, human; conditions: Mus musculus, 24 h; B16MDR at 2×10^3/ml, one day incubation, MTS readout; read-out: IC50 (cytotoxicity), B16 MDR
# Procedure: as §1, §3
# [3] = CellTiter 96 MTS cytotoxicity assay, stimulated normal PBL; assay type: cell-based; conditions: PBL at 2×10^5/ml, pre-incubated with phytohaemagglutinin + TPA for 48 hours, one day with compound
# Procedure: as §1
# (§4) Molt-4 (leukemia) cells (at 2.5×10^4/ml), and normal peripheral blood lymphocytes (PBL, at 2×10^5/ml) were incubated in 96-well plates for one day in the presence of different concentrations of MJTB. […] The optical density that represented viable cells was determined by the CellTiter 96 Aqueous Non-Radioactive Cell Proliferation Assay (Promega, Madison, Wis.), as described above.
# [4] = system: normal peripheral blood lymphocytes (PBL); experiment: as above; assay type: cell-based; conditions: PBL versus Molt-4
# Procedure: as §1, §4
# B16 melanoma cells = experiment: CellTiter 96 MTS cytotoxicity assay, B16 melanoma cells; assay type: cell-based
# Procedure: as §1
# as §2, with “Optical density representing viable cells was determined by the CellTiter 96 Aqueous Non-Radioactive Cell Proliferation Assay (described above).” left out, “n=3. […]” for “n=3.”
# [5] = system: D122 (lung carcinoma) cells; experiment: CellTiter 96 MTS cytotoxicity assay, D122 lung carcinoma cells; assay type: cell-based, human; conditions: Mus musculus, 24 h; D122 at 5×10^3/ml, one day incubation, MTS readout
# Procedure: as §1, §3
# [6] = system: 29M4.1 B lymphoma cells expressing wild type p53; experiment: CellTiter 96 MTS cytotoxicity assay, 29M4.1 B lymphoma clone with wild type p53; assay type: cell-based; conditions: 1 day, several concentrations, FIG. 3
# Procedure: as §1
# (§5) A system of two B lymphoma clones originating from the same cell line (29M4.1) was used. These clones differed solely in the expression of wild type versus mutant p53. […] The optical density that represented viable cells was determined by the CellTiter 96 Aqueous Non-Radioactive Cell Proliferation Assay (Promega, Madison, Wis.).
# [7] = system: ATP levels in Molt-4 leukemia cells; experiment: ATP determination assay (CellTiter-Glo) in Molt-4 cells; assay type: cell-based, human; conditions: MJDB at 1 mM (MJ at 3 mM) for 10, 30 or 60 minutes at 37° C., FIG. 4
# Procedure: An ATP determination assay was used to assess the effect of MJDB on ATP levels in cancer cells. More specifically, Molt-4 cells (at 1×10^4/well) were seeded in 96-well opaque-walled plates and MJ at 3 mM or MJDB at 1 mM were added for 10, 30 or 60 minutes at 37° C. Untreated cells incubated in culture medium were used as control. ATT levels were determined by the CellTiter-Glo™ Luminescent Cell Viability Assay; an assay in which cells produce a lumineascence signal that is equivalent to the ATP concentration in the cell. ATP depletion is calculated as % of control untreated cultures, mean±SD. n=3.
# [8] = system: 29M4.1 B lymphoma cells expressing mutant p53; experiment: CellTiter 96 MTS cytotoxicity assay, 29M4.1 B lymphoma clone with mutant p53; assay type: cell-based; conditions: 1 day, several concentrations, FIG. 3
# Procedure: as §1, §5
# [9] = system: HCT116 colon carcinoma cells; experiment: CellTiter 96 MTS cytotoxicity assay, HCT116 colon carcinoma cells; assay type: cell-based, human; conditions: 0.5 mM, 1 day, FIG. 2, P<0.05
# Procedure: as §1
# as §2, with “Optical density representing viable cells was determined by the CellTiter 96 Aqueous Non-Radioactive Cell Proliferation Assay (described above).” left out
# [10] = system: peripheral blood lymphocytes from chronic lymphocytic leukemia (CLL) patients; experiment: CellTiter 96 MTS cytotoxicity assay, CLL patient lymphocytes; assay type: cell-based, human; conditions: 1 day, several concentrations, FIG. 1; P<0.05 versus healthy donors
# Procedure: as §1
# (§6) In order to test the toxicity of MJDB towards human leukemia cells, peripheral blood lymphocytes from chronic lymphocytic leukemia (CLL) patients were harvested. […] The optical density that represented viable cells was determined by the CellTiter 96 Aqueous Non-Radioactive Cell Proliferation Assay (Promega, Madison, Wis.); an assay in which viable cells produce a colored product, as described above. […]
# 3LL lung carcinoma cells = experiment: CellTiter 96 MTS cytotoxicity assay, 3LL lung carcinoma cells; assay type: cell-based, mouse; conditions: 0.5 mM, 1 day, FIG. 2, P<0.05
# Procedure: as §1
# as §2, with “Optical density representing viable cells was determined by the CellTiter 96 Aqueous Non-Radioactive Cell Proliferation Assay (described above).” left out
# [11] = system: peripheral blood lymphocytes from healthy donors; experiment: CellTiter 96 MTS cytotoxicity assay, lymphocytes from healthy donors; assay type: cell-based, human; conditions: 1 day, several concentrations, FIG. 1
# Procedure: as §1, §6
# [12] = one day, MJTB as 1:1 mixture of tetra bromo isomers (Example 6), read-out: IC50 (concentration exhibiting 50% cytotoxicity), Molt-4, MJTB versus MJ
SMILES,prevention of development of lymphomas in mice (lymphomas in mice),"IC50 [1, 12]",IC50 [2],IC50 at 1 day [3],IC50 for normal peripheral blood lymphocytes relative to leukemic cells [4],"IC50 (B16 melanoma cells; 24 h, B16 at 2×10^3/ml, one day incubation, MTS readout)",IC50 [5],"IC50 ([1]; one day incubation, MTS readout (Example 5), read-out: IC50 (cytotoxicity), Molt-4)","IC50 of MJTB smaller than that of MJ (fold) ([1]; Molt-4 cells, one day)",cytotoxicity towards B lymphoma cells expressing wild type p53 [6],ATP depletion [7],cytotoxicity towards B lymphoma cells expressing mutant p53 [8],"cytotoxic effect compared to methyl jasmonate, B16 (B16 melanoma cells; 0.5 mM, 1 day, FIG. 2, P<0.05)","cytotoxic effect compared to methyl jasmonate, HCT116 [9]",cytotoxicity towards lymphocytes from CLL patients [10],"cytotoxic effect compared to methyl jasmonate, Molt-4 ([1]; 0.5 mM, 1 day, FIG. 2, P<0.05)","cytotoxic effect compared to methyl jasmonate, 3LL (3LL lung carcinoma cells)",cytotoxicity towards lymphocytes from healthy donors [11]
"CC/C=C\CC1C(=O)CCC1CC(=O)OC (stereo not shown) [MJ, methyl jasmonate, reference compound]",effective in preventing development of lymphomas in mice,500 µM,,,,,,,,,,,,,,,,
"CCC(Br)C(Br)C[C@@]1(Br)C(=O)[C@@H](Br)CC1CC(=O)OC (stereo partly shown) [MJTB, methyl jasmonate tetra-bromide]",,8 µM,80 µM,250 µM,larger than that for leukemic cells by more than an order of magnitude,80 µM,50 µM,8 µM,about 60 times,,,,,,,,,
"CCC(Br)C(Br)CC1C(=O)CCC1CC(=O)OC (stereo not shown) [MJDB, methyl jasmonate di-bromide]",,,,,,,,,,equally cytotoxic,rapid and strong ATP depletion,equally cytotoxic,highly superior in its cytotoxic effect,highly superior in its cytotoxic effect,highly and selectively cytotoxic,highly superior in its cytotoxic effect,highly superior in its cytotoxic effect,cytotoxicity is minimal
